Assay results published in patent US20230399341A1, “7-PHENYL SUBSTITUTED 2-AMINOQUINAZOLINE INHIBITORS OF HPK1” (MERCK SHARP & DOHME LLC, priority 2020, published 2023).

Target: T1, Human HPK1, catalytic domain (Homo sapiens, UniProt Q92918)
T1 sequence (Q92918 1-346): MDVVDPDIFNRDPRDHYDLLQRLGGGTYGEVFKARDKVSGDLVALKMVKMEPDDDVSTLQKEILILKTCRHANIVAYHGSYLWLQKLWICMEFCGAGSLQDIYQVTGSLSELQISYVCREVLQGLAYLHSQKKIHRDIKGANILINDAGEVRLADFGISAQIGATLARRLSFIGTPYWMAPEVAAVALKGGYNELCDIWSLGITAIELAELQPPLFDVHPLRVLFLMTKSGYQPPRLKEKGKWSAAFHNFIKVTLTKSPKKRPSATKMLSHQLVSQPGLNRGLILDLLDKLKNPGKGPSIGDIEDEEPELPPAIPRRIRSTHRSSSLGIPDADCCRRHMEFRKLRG
Assay: HPK1-SLP76 TR-FRET Assay
Format: biochemical
Details: 75 pM HPK1, ATP 10 uM, SLP76 10 nM, 30 min pre-incubation, 60 min reaction

Compound | IC50
COc1cc2c(cc1Nc1ncc3ccc(-c4cnc(C(C)(C)O)s4)cc3n1)CN(C)CC2 [Compound 1-15, 2-(5-{2-[(6-methoxy-2-methyl-1,2,3,4-tetrahydroisoquinolin-7-yl)amino]quinazolin-7-yl}-1,3-thiazol-2-yl)propan-2-ol] | 42.7 nM
COc1cc2c(cc1Nc1ncc3c(N)c(F)c(-c4cncc(N)c4C)cc3n1)CN(C)CC2 [Compound 2-1, 7-(5-amino-4-methylpyridin-3-yl)-6-fluoro-N~2~-(6-methoxy-2-methyl-1,2,3,4-tetrahydroisoquinolin-7-yl)quinazoline-2,5-diamine] | 0.249 nM
COc1cc2c(cc1Nc1ncc3ccc(-c4cncc(N5CCOCC5)c4)cc3n1)CNCC2 [Compound 1-42, N-(6-methoxy-1,2,3,4-tetrahydroisoquinolin-7-yl)-7-[5-(morpholin-4-yl)pyridin-3-yl]quinazolin-2-amine] | 38.5 nM
Cc1c(-c2cc3nc(Nc4ccc5c(c4)COCC5)ncc3c(N)c2F)cnc2c1NCCO2 [Compound 2-118, N~2~-(3,4-dihydro-1H-2-benzopyran-7-yl)-6-fluoro-7-(8-methyl-2,3-dihydro-1H-pyrido[2,3-b][1,4]oxazin-7-yl)quinazoline-2,5-diamine] | 0.0607 nM
COc1cc2c(cc1Nc1ncc3ccc(-c4cc(S(=O)(=O)N5CCCC5)ccc4C)cc3n1)CNCC2 [Compound 1-78, N-(6-methoxy-1,2,3,4-tetrahydroisoquinolin-7-yl)-7-{2-methyl-5-[(pyrrolidin-1-yl)sulfonyl]phenyl}quinazo-lin-2-amine] | 353 nM
COc1cc2c(cc1Nc1ncc3ccc(N4CCCC(CN5CCCC5=O)C4)cc3n1)CN(C)CC2 (racemic) [Compound 3-20, (S and R)-1-1(1-12-[(6-methoxy-2-methyl-1,2,3,4-tetrahydroiso-quinolin-7-yl)amino]quinazolin-7-yl}piperidin-3-yl)methyl]-pyrrolidin-2-one] | 771 nM
COc1cc2c(cc1Nc1ncc3ccc(-c4cncc(S(C)(=O)=O)c4)cc3n1)CNCC2 [Compound 1-43, N-(6-methoxy-1,2,3,4-tetrahydroisoquinolin-7-yl)-7-[5-(methylsulfonyl)pyridin-3-yl]quinazolin-2-amine] | 82.8 nM
COc1cc2c(cc1Nc1ncc3c(N)c(F)c(-c4cnc5c(c4C)NCCO5)c(Cl)c3n1)CN(C(C)C)CC2 (single isomer, unassigned) [Compound 2-105, (+ or −)-8-chloro-6-fluoro-N2-(2-isopropyl-6-methoxy-1,2,3,4-tetrahydroisoquinolin-7-yl)-7-(8-methyl-2,3-dihydro-1H-pyrido[2,3-b][1,4]oxazin-7-yl)quinazoline-2,5-diamine] | 0.0714 nM
CNC(=O)C(F)(F)c1ccc(Nc2ncc3c(N)c(F)c(-c4cnc5c(c4C)NCCO5)cc3n2)cc1 [Compound 2-186, 2-(4-{[5-amino-6-fluoro-7-(8-methyl-2,3-dihydro-1H-pyrido[2,3-b][1,4]oxazin-7-yl)quinazolin-2-yl]amino}phenyl)-2,2-difluoro-N-methylacetamide] | 0.136 nM
COc1cc2c(cc1Nc1ncc3ccc(-c4cccc(N)c4C)cc3n1)CNCC2 [Compound 1-31, 7-(3-amino-2-methylphenyl)-N-(6-methoxy-1,2,3,4-tetrahydroisoquinolin-7-yl)quinazolin-2-amine] | 204 nM
COc1cc2c(cc1Nc1ncc3ccc(-c4cccc(C(N)=O)c4)cc3n1)CN(C)CC2 [Compound 1-101, 3-{2-[(6-methoxy-2-methyl-1,2,3,4-tetrahydroisoquinolin-7-yl)amino]quinazolin-7-yl}benzamide] | 130 nM
COc1cc2c(cc1Nc1ncc3ccc(NCc4cc(C)n(C)n4)cc3n1)CN(C)CC2 [Compound 3-72, N~7~-[(1,5-dimethyl-1H-pyrazol-3-yl)methyl]-N~2~-(6-methoxy-2-methyl-1,2,3,4-tetra-hydroisoquinolin-7-yl)quinaz-oline-2,7-diamine] | 290 nM
COc1cc2c(cc1Nc1ncc3ccc(N4CCC[C@H](N5CCOC5=O)C4)cc3n1)CN(C)CC2 [Compound 3-50, 3-[(3S)-1-{2-[(6-methoxy-2-methyl-1,2,3,4-tetrahydroiso-quinolin-7-yl)amino]quinazolin-7-yl}piperidin-3-yl]-1,3-oxazol-idin-2-one] | 771 nM
Cc1c(-c2cc3nc(Nc4ccc(C(C)S(C)(=O)=O)cc4)ncc3cc2F)cnc2c1NCCO2 (single isomer, unassigned) [Compound 1-124, (R or S)-6-fluoro-7-(8-methyl-2,3-dihydro-1H-pyrido[2,3-b][1,4]oxazin-7-yl)-N-{4-[1-(methylsulfonyl)ethyl]phenyl} quinazolin-2-amine] | 0.0411 nM
CC(=O)N1CCCc2cc(Nc3ncc4c(N)c(F)c(-c5cnc6c(c5C)NCCO6)cc4n3)ccc21 [Compound 2-7, 1-[6-{[5-amino-6-fluoro-7-(8-methyl-2,3-dihydro-1H-pyrido[2,3-b][1,4]oxazin-7-yl)quinazolin-2-yl]amino}-3,4-dihydroquinolin-1(2H)-yl]ethan-1-one] | 0.112 nM
COc1cc2c(cc1Nc1ncc3c(N)c(F)c(-c4cnc5c(c4C)NCCO5)cc3n1)CNCC2 [Compound 2-4, 6-fluoro-N~2~-(6-methoxy-1,2,3,4-tetrahydroisoquinolin-7-yl)-7-(8-methyl-2,3-dihydro-1H-pyrido[2,3-b][1,4]oxazin-7-yl)quinazoline-2,5-diamine] | 0.979 nM
COc1cc2c(cc1Nc1ncc3ccc(-c4cc(N)cc(C#N)c4)cc3n1)CNCC2 [Compound 1-62, 3-amino-5-{2-[(6-methoxy-1,2,3,4-tetrahydroisoquinolin-7-yl)amino]quinazolin-7-yl}benzonitrile] | 114 nM
COc1cc2c(cc1Nc1ncc3ccc(-c4ccn5ncnc5c4)cc3n1)CN(C)CC2 [Compound 1-16, N-(6-methoxy-2-methyl-1,2,3,4-tetrahydroisoquinolin-7-yl)-7-([1,2,4]triazolo[1,5-a]pyridin-7-yl)quinazolin-2-amine] | 154 nM
COc1cc2c(cc1Nc1ncc3c(N)c(F)c(-c4cnc5c(c4C)NCCO5)cc3n1)CCN(C)C2 [Compound 2-88, 6-fluoro-N2-(7-methoxy-2-methyl-1,2,3,4-tetrahydroisoquinolin-6-yl)-7-(8-methyl-2,3-dihydro-1H-pyrido[2,3-b][1,4]oxazin-7-yl)quinazoline-2,5-diamine] | 0.377 nM
Cc1c(-c2cc3nc(Nc4ccc(C(C)S(C)(=O)=O)cc4)ncc3cc2F)cnc2c1NCCO2 (single isomer, unassigned) [Compound 1-126, (R of S)-6-fluoro-7-(8-methyl-2,3-dihydro-1H-pyrido[2,3-b][1,4]oxazin-7-yl)-N-{4-[1-(methylsulfonyl)ethyl]phenyl} quinazolin-2-amine] | 0.68 nM
COc1cc2c(cc1Nc1ncc3ccc(Nc4cc(S(C)(=O)=O)ccc4C)cc3n1)CN(C)CC2 [Compound 3-24, N~2~-(6-methoxy-2-methyl-1,2,3,4-tetrahydroisoquinolin-7-yl)-N~7~-[2-methyl-5-(meth-ylsulfonyl)phenyl]quinazoline-2,7-diamine] | 2.6 nM
CC(=O)NCc1ccc(Nc2ncc3c(N)c(F)c(-c4cnc5c(c4C)NCCO5)cc3n2)cc1 [Compound 2-30, N-[(4-{[5-amino-6-fluoro-7-(8-methyl-2,3-dihydro-1H-pyrido[2,3-b][1,4]oxazin-7-yl)quinazolin-2-yl]amino}phenyl)methyl] acetamide] | 0.0811 nM
